Laboratory results taken from US20210045385A1, “PYRIDAZINONE-SUBSTITUTED KETOXIMES AS HERBICIDES” (FMC Corporation, priority 2018, published 2021).

Assays:
[1] = tested on: sedge, umbrella (small-flower umbrella sedge, Cyperus difformis); test: Test B flooded paddy test, visual plant response rating; type: in vivo; details: 250 g ai/ha, Flood, applied to paddy water, 2-leaf stage, evaluated after 13 to 15 days
In short: (§1)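 Compounds added straight into paddy water of pots flooded to 3 cm, with 2-leaf-stage plants of the four species; water level held throughout.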

rice (Oryza sativa) = test: as above; type: in vivo; details: 250 g ai/ha, Flood, applied to paddy water, 2-leaf stage, evaluated after 13 to 15 days
In short: as §1

[2] = tested on: ducksalad (Heteranhera limosa); test: as above; type: in vivo; details: 250 g ai/ha, Flood, applied to paddy water, 2-leaf stage, evaluated after 13 to 15 days
In short: as §1

[3] = tested on: barnyardgrass (Echinochloa crus-galli); test: as above; type: in vivo; details: 250 g ai/ha, Flood, applied to paddy water, 2-leaf stage, evaluated after 13 to 15 days
In short: as §1

[4] = tested on: pigweed (Amaranthus retroflexus); test: Test A postemergence, visual plant response rating; type: in vivo; details: for Pigweed plant response rating (0 to 100 scale): 500 g ai/ha, postemergence, 0 is no effect, 100 is complete control; for Pigweed plant response rating: Postemergence, 125 g ai/ha, 0 to 100 scale (0 no effect, 100 complete control)
In short: (§2)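 Ratings 0–100 (100 = complete control), visual, vs untreated controls at ~10 days. Application pre- or postemergence; solvent mixture with surfactant; loam/sand medium.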

[5] = tested on: Italian ryegrass (Lolium multiflorum); test: Test A postemergence, visual plant response rating; type: in vivo
In short: as §2

[6] = tested on: wheat (Triticum aestivum); test: Test A postemergence, visual plant response rating; type: in vivo; details: for Wheat plant response rating: 0 to 100 scale (0 no effect, 100 complete control)
In short: as §2

[7] = tested on: galium (catchweed bedstraw, Galium aparine); test: Test A postemergence, visual plant response rating; type: in vivo; details: for Galium plant response rating (0 to 100 scale): 500 g ai/ha, postemergence, 0 is no effect, 100 is complete control; for Galium plant response rating: Postemergence, 125 g ai/ha, 0 to 100 scale (0 no effect, 100 complete control)
In short: as §2

[8] = tested on: blackgrass (Alopecurus myosuroides); test: Test A postemergence, visual plant response rating; type: in vivo; details: for Blackgrass plant response rating (0 to 100 scale): 500 g ai/ha, postemergence, 0 is no effect, 100 is complete control; for Blackgrass plant response rating: Postemergence, 125 g ai/ha, 0 to 100 scale (0 no effect, 100 complete control)
In short: as §2

corn (Zea mays) = test: Test A postemergence, visual plant response rating; type: in vivo; details: for Corn plant response rating (0 to 100 scale): 500 g ai/ha, postemergence, 0 is no effect, 100 is complete control; for Corn plant response rating: Postemergence, 125 g ai/ha, 0 to 100 scale (0 no effect, 100 complete control)
In short: as §2

[9] = tested on: foxtail, giant (giant foxtail, Setaria faberii); test: Test A postemergence, visual plant response rating; type: in vivo
In short: as §2

[10] = tested on: ragweed (common ragweed, Ambrosia elatior); test: Test A postemergence, visual plant response rating; type: in vivo; details: for Ragweed plant response rating (0 to 100 scale): 500 g ai/ha, postemergence, 0 is no effect, 100 is complete control; for Ragweed plant response rating: Postemergence, 125 g ai/ha, 0 to 100 scale (0 no effect, 100 complete control)
In short: as §2

[11] = tested on: barnyardgrass (Echinochloa crus-galli); test: Test A postemergence, visual plant response rating; type: in vivo; details: for Barnyardgrass plant response rating (0 to 100 scale): 500 g ai/ha, postemergence, 0 is no effect, 100 is complete control; for Barnyardgrass plant response rating: Postemergence, 125 g ai/ha, 0 to 100 scale (0 no effect, 100 complete control)
In short: as §2

kochia (Kochia scoparia) [12] = test: Test A postemergence, visual plant response rating; type: in vivo; details: for Kochia plant response rating (0 to 100 scale): 500 g ai/ha, postemergence, 0 is no effect, 100 is complete control; for Kochia plant response rating: Postemergence, 125 g ai/ha, 0 to 100 scale (0 no effect, 100 complete control)
In short: as §2

[13] = tested on: pigweed (Amaranthus retroflexus); test: Test A preemergence, visual plant response rating; type: in vivo; details: for Pigweed plant response rating: 125 g ai/ha, preemergence, 0 to 100 scale, 0 no effect, 100 complete control; for Pigweed plant response rating (0 to 100 scale): 500 g ai/ha Preemergence, approx. 10 days
In short: as §2

[14] = tested on: Italian ryegrass (Lolium multiflorum); test: Test A preemergence, visual plant response rating; type: in vivo; details: for Ryegrass, Italian plant response rating: 125 g ai/ha, preemergence, 0 to 100 scale, 0 no effect, 100 complete control; for Ryegrass, Italian plant response rating (0 to 100 scale): 500 g ai/ha Preemergence, approx. 10 days
In short: as §2

[15] = tested on: foxtail, giant (giant foxtail, Setaria faberii); test: Test A preemergence, visual plant response rating; type: in vivo
In short: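 Formulated in a non-phytotoxic solvent mixture including surfactant, each test chemical was sprayed onto the soil surface after sowing, or onto seedlings 2 to 10 cm high. Roughly 10 days later, plants were compared with untreated controls and rated for injury from 0 (no effect) to 100 (complete control).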

[16] = tested on: barnyardgrass (Echinochloa crus-galli); test: Test A preemergence, visual plant response rating; type: in vivo; details: for Barnyardgrass plant response rating: 125 g ai/ha, preemergence, 0 to 100 scale, 0 no effect, 100 complete control; for Barnyardgrass plant response rating (0 to 100 scale): 500 g ai/ha Preemergence, approx. 10 days
In short: as §2

kochia (Kochia scoparia) [17] = test: Test A preemergence, visual plant response rating; type: in vivo; details: for Kochia plant response rating: 125 g ai/ha, preemergence, 0 to 100 scale, 0 no effect, 100 complete control; for Kochia plant response rating (0 to 100 scale): 500 g ai/ha Preemergence, approx. 10 days
In short: as §2

[18] = tested on: foxtail, green (green foxtail, Setaria viridis); test: Test A postemergence, visual plant response rating; type: in vivo
In short: as §2

[19] = tested on: foxtail, green (green foxtail, Setaria viridis); test: Test A preemergence, visual plant response rating; type: in vivo
In short: as §2

[20] = tested on: ragweed (common ragweed, Ambrosia elatior); test: Test A preemergence, visual plant response rating; type: in vivo
In short: as §2

[21] = 500 g ai/ha, postemergence, 0 is no effect, 100 is complete control
[22] = Postemergence, 125 g ai/ha, 0 to 100 scale (0 no effect, 100 complete control)
[23] = 125 g ai/ha, preemergence, 0 to 100 scale, 0 no effect, 100 complete control
[24] = 500 g ai/ha Preemergence, approx. 10 days

Row | Structure (SMILES) | Plant response rating, Sedge, Umbrella (0 to 100 scale, 0 is no effect, 100 is complete control) [1] | Plant response rating, Rice (0 to 100 scale, 0 is no effect, 100 is complete control) (rice (Oryza sativa)) | Plant response rating, Ducksalad (0 to 100 scale, 0 is no effect, 100 is complete control) [2] | Plant response rating, Barnyardgrass (0 to 100 scale, 0 is no effect, 100 is complete control) [3] | Pigweed plant response rating (0 to 100 scale) [4] | Pigweed plant response rating [4] | Ryegrass, Italian plant response rating (0 to 100 scale) [5, 21] | Galium plant response rating (0 to 100 scale) [7] | Galium plant response rating [7] | Blackgrass plant response rating (0 to 100 scale) [8] | Blackgrass plant response rating [8] | Corn plant response rating (0 to 100 scale) (corn (Zea mays)) | Corn plant response rating (corn (Zea mays)) | Ragweed plant response rating (0 to 100 scale) [10] | Ragweed plant response rating [10] | Barnyardgrass plant response rating (0 to 100 scale) [11] | Barnyardgrass plant response rating [11] | Kochia plant response rating (0 to 100 scale) (kochia (Kochia scoparia) [12]) | Kochia plant response rating (kochia (Kochia scoparia) [12]) | Pigweed plant response rating [13] | further results
1 | CO/N=C(\c1c(O)c(C)nn(C)c1=O)c1cc(Br)cc2ccccc12 [Compound 91, 4-[(Z)-(3-bromo-1-naphthalenyl)(methoxyimino)methyl]-5-hydroxy-2,6-dimethyl-3(2H)-pyridazinone] | 60 | 20 | 60 | 65 | 90 | 80 | 100 | 100 | 100 | 100 | 100 | 70 | 30 | 100 | 100 | 80 | 80 | 80 | 60 | 100 | melting point: 129 to 133 °C; Ryegrass, Italian plant response rating [5, 22]: 100; Wheat plant response rating (0 to 100 scale) [6, 21]: 80; Wheat plant response rating ([6]; Postemergence, 125 g ai/ha): 50; Foxtail, Giant plant response rating (0 to 100 scale) [9, 21]: 90; Foxtail, Giant plant response rating [9, 22]: 80; Pigweed plant response rating (0 to 100 scale) [13]: 100; Ryegrass, Italian plant response rating [14]: 80; Ryegrass, Italian plant response rating (0 to 100 scale) [14]: 100; Foxtail, Giant plant response rating [15, 23]: 100; Foxtail, Giant plant response rating (0 to 100 scale) [15, 24]: 100; Barnyardgrass plant response rating [16]: 100; Barnyardgrass plant response rating (0 to 100 scale) [16]: 100; Kochia plant response rating (kochia (Kochia scoparia) [17]): 60; Kochia plant response rating (0 to 100 scale) (kochia (Kochia scoparia) [17]): 60
2 | CO/N=C(\c1cccc(S(C)(=O)=O)c1)c1c(O)c(C)nn(C)c1=O [Compound 148] | 0 | 0 | 0 | 0 | 0 | 0 | 0 | 0 | 0 | 0 | 0 | 0 | 0 | 0 | 0 | 0 | 0 | 0 | 0 | 0 | Ryegrass, Italian plant response rating (0 to 100 scale) ([5]; Postemergence, rate not given, approx. 10 days): 0; Wheat plant response rating ([6]; Postemergence, 500 g ai/ha): 0; Wheat plant response rating (0 to 100 scale) ([6]; Postemergence, approx. 10 days): 0; Foxtail, Green plant response rating (0 to 100 scale) [18, 21]: 0; Foxtail, Green plant response rating [18, 22]: 0; Pigweed plant response rating (0 to 100 scale) [13]: 0; Ryegrass, Italian plant response rating [14]: 0; Ryegrass, Italian plant response rating (0 to 100 scale) [14]: 0; Foxtail, Green plant response rating [19, 23]: 0; Foxtail, Green plant response rating (0 to 100 scale) [19, 24]: 0; Ragweed plant response rating [20, 23]: 0; Ragweed plant response rating (0 to 100 scale) [20, 24]: 0; Barnyardgrass plant response rating [16]: 0; Barnyardgrass plant response rating (0 to 100 scale) [16]: 0; Kochia plant response rating (kochia (Kochia scoparia) [17]): 0; Kochia plant response rating (0 to 100 scale) (kochia (Kochia scoparia) [17]): 0
